From patent publication US20220048987A1, “METHOD OF TREATMENT TO PREVENT OR REVERSE AGE-ASSOCIATED INFLAMMATION, COGNITIVE DECLINE, AND NEURODEGENERATION” (The Board of Trustees of the Leland Stanford Junior …, priority 2020, published 2022) come the findings set out here.

The structures appear in SMILES notation.

What all share (type): in vivo, mouse
The subject of data set [1] is aged mice. In words: Chemokine and cytokine multiplex assay of plasma and hippocampus of treated mice. The conditions noted are these: aged (20-22 mo) mice, 2.5 mg/kg/d by gavage, 6 weeks. The procedure:
PGE2, Butaprost, PF04418948 and Iloprost were purchased from Millipore-Sigma (Burlington, Mass., USA). ONO-AE248 and ONO-AE1-329 were gifts from Ono Pharmaceuticals (Osaka, Japan). Compound 52 (Charnwood Molecular Ltd, Loughborough, UK) and PF04418948 (Millipore-Sigma, Burlington, Mass., USA) were resuspended in 40% PEG (Sigma-Aldrich) and 60% of a 30% Kolliphor HS15 solution (Sigma-Aldrich), and administered orally at 10 mg/kg/d and 2.5 mg/kg/d, respectively. U-^13C-Glucose, U-^13C-Lactate, U-^13C-Glutamine, and U-^13C-Pyruvate were purchased from Cambridge Isotopes (Tewksbury, Mass., USA). HUSH-29 plasmids containing shRNAs to human GYS1 were purchased from Origene Technologies (Rockville, Md., USA). Human monocyte derived macrophages were incubated with 1640 Media with GlutaMAX+HEPES without sodium pyruvate (ThermoFisher, catolog No. 72400146). […]
Hippocampal lysates or mouse plasma were stored at −80° C. and cytokine analysis was carried out at the Human Immune Monitoring Core (Stanford University) or Eve Technologies (Calgary, Alberta, Canada) using Luminex mouse 39-plex kits and Human 71-plex kits. Plates were read using a Luminex LabMap200 instrument or a MSD Chemiluminescence instrument with a lower bound of 100 beads per sample per measured cytokine. […] Mean fluorescence intensity (MFI) was averaged over duplicate wells for each cytokine per sample on each plate. […]

Data set [2] deals with aged mice. In words: Spatial memory: Novel Object Location and Barnes Maze tasks. The conditions noted are these: aged (20-22 mo) mice, 2.5 mg/kg/d, 6 weeks. The protocol: The Novel Object Location protocol was adopted from Wimmer et al. with minor modifications. Mice interacted with the chamber (a 16 in×16 in×15 in white box made from PVC) over the course of 2 days involving 1 habituation period, 3 training sessions, and 1 testing session. On the day of training (day 1) mice were placed in the middle of an empty chamber and given 5 minutes to explore the chamber. Mice were then placed in an independent holding cage for an inter-training interval (ITI) of 3 minutes. The objects used were a plastic bottle and seasoning shaker of similar size (3 in H×1 in W×1 in L). After the habituation session, the mice then underwent three 10-minute training sessions each with a 3 min ITI in between sessions. […] Animals were recorded a JVC Everio HD camcorder GZE200 and analyzed with Kinovea video tracking software. Exploration of the objects was defined as the amount of time mice were oriented toward an object with its nose within 1 cm of it, and was scored by an experimenter blind to experimental group. […]
After testing each mouse, the maze was cleaned with 70% ethanol and rotated clockwise after every mouse to avoid intra-maze odor or visual cues. All sessions were recorded using a JVC Everio HD camcorder GZ-E200 and analyzed with Kinovea video tracking software. […]

The nature of data set [3]: Measurement of PF04418948 in plasma and brain (LC/MS/MS). The conditions noted are these: aged (20-22 mo) mice, 2.5 mg/kg/d, 6 weeks, perfused brain. The procedure:
Presence of PF04418948 was measured in aged (20-22 mo) mice treated with PF04418948 2.5 mg/kg/d for 6 weeks in plasma and perfused brain by LC/MS/MS at Quintara Discovery (Hayward, Calif., USA). In brief, brain samples were first homogenized in 2 volumes of ice-cold water, then further 2 fold diluted in blank plasma. An aliquot of 20 μL of each plasma sample or plasma diluted tissue homogenate was treated with 100 μL of acetonitrile containing internal standard (Terfenadine). The mixture was vortexed on a shaker for 15 minutes and subsequently centrifuged at 4000 rpm for 15 minutes. An aliquot of 70 μL of the extract was transferred to an injection plate and reconstituted in 70 μL of water for LC/MS/MS injection. Calibration standards and quality control samples were prepared by spiking the testing compound into blank plasma followed by processing with the samples.

For `COc1ccc2cc(OCC3(C(=O)O)CN(C(=O)c4ccc(F)cc4)C3)ccc2c1` [PF-04418948], the “pro-inflammatory factors in blood and hippocampus” value in the data set on aged mice [1] is reported as “reduced levels of pro-inflammatory factors not only in blood but also in hippocampus”. Further, the hippocampal memory function result in the data set on aged mice [2] was “restored hippocampal memory function as well as LTP to youthful levels”. Also, the “brain level (whole brain lysates)” value in data set [3] is reported as “not detected”.
